Data from patent US20200037588A1, “METHODS OF A DROSOPHILA MODEL FOR CHRONIC MYELOID LEUKEMIA (CML) TREATMENT” (American University of Beirut, priority 2018, published 2020).
Where two headings read alike, the source gives them in different places.

Key:
[1] = system: GMR-GAL4>w1118 control flies; conditions: in vivo
[2] = system: BCR-ABL1; conditions: cited from earlier work
[3] = system: GMR-GAL4>w1118 control flies; assay: Eye development of control flies fed TKI (SEM)

SMILES | eye development in control flies fed drug (in words) [1] | potency for BCR-AB1L inhibition in vitro compared to imatinib [2] [fold] | eye development in control flies fed drug (in words) [3]
Cc1nc(Nc2ncc(C(=O)Nc3c(C)cccc3Cl)s2)cc(N2CCN(CCO)CC2)n1 [dasatinib] | Normal development | – | –
Cc1ccc(NC(=O)c2ccc(CN3CCN(C)CC3)cc2)cc1Nc1nccc(-c2cccnc2)n1 [imatinib] | Normal development | – | –
Cc1cn(-c2cc(NC(=O)c3ccc(C)c(Nc4nccc(-c5cccnc5)n4)c3)cc(C(F)(F)F)c2)cn1 [nilotinib] | Normal development | 20 | –
Cc1ccc(C(=O)Nc2ccc(CN3CCN(C)CC3)c(C(F)(F)F)c2)cc1C#Cc1cnc2cccnn12 [ponatinib] | – | – | Normal development
